This note sets out measurements from a melting point compilation (Tetko et al.; mined from patent text by program, amines drawn as free bases though some values may be those of a salt).

One may read the melting point as the temperature of the solid-liquid transition.

In turn, `CC(C)(O)Cn1cnc2c(N)nc3ccccc3c21` returned a melting point of 270 to 272 °C. Turning to `CC(=O)c1cnc(-c2ccccc2)nc1-c1ccccc1`, the melting point lay in the range of 100 to 108 °C. In turn, `CC(O)COc1c2ccccc2c(C=O)c2ccccc12` (centres undefined) registered a melting point of 84 to 86 °C. Compound `CN(C)C1CCCN(C(=O)c2n[nH]c3ccccc23)C1` (centres undefined) returned a melting point of 141 to 142 °C. As for `CCOC(=O)CCCCCBr`, the melting point fell in the range of 34.5 to 36 °C. As to `CCCCC(CC)COc1cc(CCl)c(OC)cc1CCl` (centres undefined), the melting point fell in the range of 58 to 60 °C. Compound `O=C(c1ccccc1)c1cc2c(s1)S(=O)(=O)CCc1cc(=O)n(-c3ccc(Cl)cc3)nc1-2` yielded a melting point of 254 to 256 °C.

On to `CCOC(=O)c1c[nH]nc1-c1cccs1`, for which the melting point was in the range of 123 to 124 °C. The result for `CCCS(=S)c1cccc(OS(C)(=O)=O)n1` (centres undefined) reads 51 to 53 °C; that for `Fc1ccc(-c2ccn(C3CCNCC3)c2-c2ccncc2)cc1`, 191 to 192 °C; that for `Cc1nc(N2CCN(CC3CC3)C2=O)sc1C(=O)NCc1ccccn1`, 148 to 151 °C.

In turn, `O=C(NC(CO)c1ccccc1)c1ccccc1` (centres undefined) gave a melting point of 235 to 236 °C. Compound `CCOC(=O)c1cn(CC)c2c(F)c(C)c(F)cc2c1=O` yielded a melting point of 147 to 150 °C. The compound `C=CCOC(=O)c1c(Oc2nc(OC)cc(OC)n2)ccc2[nH]c(C)c(NC(C)=O)c12` yielded a melting point of 177 to 180 °C. For the compound `COc1ccc2cc(NC(C)=O)cc(C)c2n1`, the melting point fell in the range of 193 to 196 °C. In turn, `O=C(CCC(C(=O)O)N1C(=O)c2cccc(NCc3ccco3)c2C1=O)Nc1ccccc1` (centres undefined) registered a melting point of 146 to 148 °C.

In the case of `CCc1cc(C(=O)c2ccccc2F)c(-n2c(C)nnc2CNC(=O)c2cc3ccccc3[nH]2)s1`, the melting point lay in the range of 255 to 256 °C. `COC1=C(OC)C(=O)C(CCCCCCCCCCCCC(=O)O)=C(C)C1=O` displayed a melting point of 62 °C.

The compound `CCCCC(CNC(=O)Nc1c(C(C)C)cccc1C(C)C)c1cccc(C)c1` (centres undefined) returned a melting point of 173 to 174 °C. In turn, `CCOC(=O)c1cc2c(cn1)[nH]c1ccc(C(C)O)cc12` (centres undefined) registered a melting point of 125 to 130 °C. Regarding `NS(=O)(=O)c1cccc(-c2noc(-c3cnn4c(C(F)F)cc(-c5ccc(C(F)(F)F)cc5)nc34)n2)c1`, the melting point stood at 267 °C. `O=C(O)c1ccc(Cc2cc3cc(C(F)(F)F)ccc3n2S(=O)(=O)c2cccc(C3CC3)c2)cc1` returned a melting point of 147 °C. `CCCCCCCc1ccc(-c2ccc(N)cc2)cc1` had a melting point of 79 °C. For the compound `CCC(=NOCc1cccs1)c1cc(Cl)ccc1NS(=O)(=O)C(F)(F)F`, the melting point lay in the range of 53 to 54 °C.

In turn, `CN(C)c1cccc(OC(=O)NC2C(=O)N(CC34CC5CC(CC(C5)C3)C4)c3ccccc3N(c3ccccc3)C2=O)c1` (centres undefined) returned a melting point of 130 to 132 °C. Compound `CCN(CC)C(=O)Cn1c(=N)sc2cc(OC(F)(F)F)ccc21` returned a melting point of 223 °C.

`Clc1ccc(N=Cc2ccc(-c3noc4ccccc34)cc2)cc1` registered a melting point of 164 to 165 °C. Compound `CC1(C)[C@H](C=C(Cl)C(F)(F)F)[C@@H]1C(=O)NCc1cccc2c1CCCc1ccccc1-2` (relative stereo) yielded a melting point of 65 to 70 °C. The result for `CC(C)c1nn(-c2ccc([N+](=O)[O-])cn2)cc1CCCO` reads 130 to 131 °C.

Consider `O=C(O)C1CC2CCC1c1[nH]c3ccccc3c12` (centres undefined), for which the melting point lay within 212 to 214 °C.

Compound `CCOC(=O)C(NC(C)=O)(C(=O)OCC)C1=Nc2ccc(C#N)cc2C(c2ccccc2F)=NC1` registered a melting point of 138 to 140 °C. `CCNC(=O)N=C(NC(=O)Nc1ccccc1C)SC` gave a melting point of 152 to 153 °C. In turn, `COC(=O)COc1ccc(C(=O)CNC=O)cc1` came in with a melting point of 116 °C.

Consider `C[Si](C)(C)c1cccs1`, for which the melting point is 61 to 62 °C. In the case of `CC(C)(COc1ccc(C(N)=O)cn1)NCc1ccccc1`, the melting point lay in the range of 125 to 126 °C. In turn, `COCc1c[nH]c(-c2ccc(OCC(O)CO)cc2)n1` (centres undefined) returned a melting point of 154 to 156 °C. On to `CC(CS)C(=O)N(CC(=O)O)C1CC1` (centres undefined), for which the melting point is 89 to 91 °C.

With `COc1ccc(N2CCN(c3c(C)c4c(c(OC)c3C)OC(C)C4)CC2)cc1F` (centres undefined), the melting point is 120 to 122 °C. For `C/C(=C\c1ccc(OCCS(C)=O)cc1)c1ccc2c(c1)C(C)(C)CCC2(C)C` (centres undefined) the value was 134 to 136 °C; for `O=C(Nc1cccc(-c2ccnc3c(C(=O)c4ccco4)cnn23)c1)c1ccccc1`, 220 to 222 °C; for `O=[N+]([O-])c1cc(N2CCNCC2)ccc1S(=O)(=O)c1ccccc1`, 180 to 182 °C. In the case of `Cc1cc(O)c(Cl)c(O)c1`, the melting point stood at 72 °C. `CC(CS)C(=O)NC(CC(N)=O)C(=O)O` (centres undefined) returned a melting point of 181 °C. For `Cc1cc(C)cc(-c2cc(O)c(SCCc3ccccc3)c(=O)o2)c1`, the melting point fell in the range of 155 to 157 °C.

In turn, `COc1c(C)cc(P(c2cc(C)c(OC)c(C)c2)c2cc(C)c(OC)c(C)c2)cc1C` came in with a melting point of 176 °C.

In turn, `N#Cc1c(-c2ccc(Cl)cc2)[nH]c(Br)c1Cl` displayed a melting point of 262 to 263 °C. The result for `CC(C(=O)c1ncn2c1c(=O)n(C(C)C)c1ccccc12)C(=O)C1CC1` (centres undefined) reads 167 to 169 °C; that for `O=C1Cc2cccc(Oc3ccc(Cl)cc3)c2O1`, 100 to 102 °C; that for `O=C(CSc1ccc(Cl)c(Cl)c1)C12CC3CC(CC(C3)C1)C2`, 105 to 110 °C. Consider `CC1(C)N=C(NC#N)N=C(NC(=O)c2nc(Cl)c(N)nc2N)N1`, for which the melting point is 342 °C.

Take `CC(C)n1nc(-c2cnc(N)nc2-c2ccccc2C(F)(F)F)ccc1=O`: the melting point was in the range of 160 to 161 °C. `CCCC(=O)c1ccccc1NC(C)=O` had a melting point of 46.5 to 47 °C.

As to `Cc1cc(Cl)ccc1N=c1ssnc1Cl`, the melting point was in the range of 130 to 131 °C. The result for `CCOC(=O)C(F)(F)C(=O)[C@H](Cc1ccccc1)NC(=O)Cn1c(-c2cccc(C)c2)ncc(NC(=O)OCc2ccccc2)c1=O` reads 138 to 140 °C. The compound `CNC(=O)n1nc(-c2ccc(Cl)cc2)nc1N` gave a melting point of 193 to 196 °C. The result for `COc1ccc2c(c1OC)C1(COc3cc4c(cc31)OCCO4)C(=O)N2Cc1ccc(C(F)(F)F)o1` (centres undefined) reads 62 to 65 °C. For the compound `CCOCCOc1cc(N2C(=O)C3=C(CCCC3)C2=O)c(F)cc1C#N`, the melting point was 90 °C. `O=C(CCCOc1cc(-c2ccccc2)ccc1O)NO` returned a melting point of 148 to 152 °C. The result for `CCCCOCCOc1ccc(-c2ccc3c(c2)C=C(C(=O)Nc2ccc(S(=O)Cc4nncn4CCCC)cc2)CCN3CC(C)C)cc1` (centres undefined) reads 178 to 180 °C. `Cc1nnc(-c2ccc3occ(-c4ccc(S(=O)(=O)C(C)C)cc4)c3c2)o1`: the melting point is 229 to 230 °C. In the case of `O=C(NCc1noc(-c2c3ccccc3nn2CCn2ccnc2)n1)c1ccccc1`, the melting point was in the range of 167 to 168 °C. For `NCCCN1CCOC(c2ccccc2)(c2ccccc2)CC1`, the melting point is 68 to 70 °C.

Turning to `CCCCCC(=NOC)c1cc(C#N)c(=O)[nH]c1C`, the melting point fell in the range of 159 to 165 °C.

In the case of `CC(C)N1CCN(Cc2ccc3c(c2)-c2[nH]nc(-c4ccsc4)c2C3)CC1`, the melting point fell in the range of 182 to 185 °C.

In turn, `COC(=O)CCCCOc1ccc2nc3[nH]c(=O)[nH]c3cc2c1` showed a melting point of 281 to 282 °C. The result for `CCOC(=O)c1cc(CC)sc1Nc1ccc([N+](=O)[O-])cc1N` reads 174 to 176 °C; that for `CCOC(=O)/C=C/c1cnc(-c2ccc(OCc3ccccc3)c(C34CC5CC(CC(C5)C3)C4)c2)cn1`, 145 to 148 °C. `O=c1[nH]c(=O)n2c3c1cnn3C(c1cccc(C(F)(F)F)c1)=CC2` yielded a melting point of 260 to 262 °C. As for `O=C(NCCC12CC3CC(CC(C3)C1)C2)c1cc(-c2ccccc2C(=O)O)ccc1Cl`, the melting point lay in the range of 114 to 117 °C. For `Cc1ccc(-c2ccc3c(c2)C=C(C(=O)Nc2ccc(CN4CCCCC4)cc2)C3)cc1` the value was 219 to 220 °C. The compound `O=[N+]([O-])c1c(O)ccc2cc(-c3ccc(O)cc3)ccc12` yielded a melting point of 199 to 201 °C. The compound `CCN1CCc2cc(OC)c(OC)cc2C1C1CC(C(=O)O)CCC12c1cc(OC)c(OC)cc1CCN2CC` (centres undefined) registered a melting point of 124 to 126 °C. For `CCOCN(c1ccccc1CN1CCC(c2ccccc2)OC1=O)S(=O)(=O)C(F)(F)F` (centres undefined) the value was 116 °C. Turning to `Cc1cccc(-c2n[nH]cc2-c2ccc(F)c(-c3cnn(CCN4CCOCC4)c3)c2)n1`, the melting point came out at 124 °C. With `N#Cc1c(Nc2cccc(Cl)c2)n[nH]c1N`, the melting point lay in the range of 195 to 200 °C. `NC(=O)N(O)Cc1ccc(Oc2ccc(-n3ccnc3)cc2)s1` displayed a melting point of 141 °C.

With `CN1C(=O)CN=C(c2ccccc2F)c2cc(NC(=O)NC(C)(C)CO)ccc21`, the melting point lay in the range of 162 to 176 °C. With `O=C1NCC2CC1c1ccccc12` (centres undefined), the melting point was in the range of 172 to 173 °C.

Turning to `CCN1C(=O)C(C)(C)C(=O)N(C)c2cc(CN(CCn3ccc4oc(C)cc4c3=O)Cc3cnccn3)ccc21`, the melting point lay in the range of 129 to 131 °C.

Take `C=CC[C@H]1Cc2c(OCOC)cccc2C(O)O1` (some centres undefined): the melting point was 72 to 74 °C. In turn, `COc1cc(OC)c(-c2cccs2)cc1C=CC(=O)c1ccc(S(=O)(=O)Nc2nnn[nH]2)cc1` had a melting point of 185 to 186 °C. The result for `COc1ccc(N2CCN(C3CCN(Cc4ccccc4)CC3)C2=O)cc1` reads 144 to 147 °C; that for `O=[N+]([O-])c1ccccc1-c1ccc(CNc2nc(C(F)(F)F)nc3c2CCCC3)cc1`, 150 to 151 °C. As to `COC1=CC(=O)C=C(Br)C1=O`, the melting point is 157 to 158 °C.

In the case of `N#Cc1cc(Oc2ccc(Cl)cc2Cl)c(O)cc1Cl`, the melting point fell in the range of 145 to 150 °C. `CS(=O)(=O)Nc1ccc(-c2cn3cccnc3n2)cc1Sc1ccc(F)cc1F` had a melting point of 219 to 220 °C. The compound `O=C(c1ccc(OC(F)F)c2oc3ccccc3c12)[NH+]([O-])c1ccncc1` (centres undefined) gave a melting point of 244 °C. For `CN(C)C(=O)N(NC(=O)C(F)(F)F)c1ccc(Cl)cc1Cl` the value was 137 to 138 °C; for `CCCCCCCCOc1ccc(-c2ccc(OCCCCCCCC)c(F)c2)cc1F`, 84 °C.
